Test [1] in a line: Antitumor activity against human A549 cells xenografted in nude mouse assessed as tumor growth inhibition at 7.5 mg/kg, ip qd for 5 days relative to control. As to conditions: 120 h, read-out: TGI. The class given is functional.
Test [2] can be described thus: Antitumor activity against human DU145 cells xenografted in nude mouse assessed as tumor growth inhibition at […], iv administered every third day measured on day 28 relative to control. The class given is functional. To be noted: DU-145, iv, 672 h, read-out: TGI. In general terms: In xenograft studies the graft and the host belong to different species.
The nature of test [3]: Antitumor activity against human A549 cells xenografted in nude mouse assessed as tumor growth inhibition at […], ip qd for 5 days relative to control. The class given is functional. To be noted: 120 h, read-out: TGI.
A short description of test [4]: Antitumor activity against human MCF7 cells xenografted in nude mouse assessed as tumor growth inhibition at 7.5 mg/kg, ip qd for 5 days relative to control. The class given is functional. As to conditions: 120 h, read-out: TGI.
For test [5], the system named is MCF7. Description: Potentiation of taxotere-induced antitumor activity against human MCF7 cells xenografted in nude mouse assessed as tumor growth inhibition at 7.5 mg/kg, ip qd for 4 days measured on day 7. The class given is functional, organism-based.
The subject of test [6] is HeLa. Description: Effect on cell cycle progression in human HeLa cells assessed as reduction in 2N cells at 200 nM. The class given is functional, cell-based.
For test [7], the system named is MES-SA. Description: Ratio of IC50 for taxol-sensitive human […] to IC50 for taxol-sensitive human […] pretreated with p-gp inhibitor cyclosporinA followed by compound addition. The class given is functional.
Test [8] can be described thus: Antiproliferative activity against taxol-resistant human MES-SA/Dx5 cells expressing MDR1 mRNA and P-gp pretreated with p-gp inhibitor cyclosporinA followed by compound addition. The class given is functional, cell-based.
The nature of test [9]: Antiproliferative activity against taxol-sensitive human MES-SA cells […]. The class given is functional, cell-based.
Test [10] can be described thus: Antitumor activity against human MDA-MB-231 cells xenografted in nude mouse assessed as tumor growth inhibition at 7.5 mg/kg, ip qd for 5 days relative to control. The class given is functional. As to conditions: MDA-MB-231, ip, 120 h, read-out: TGI.
The nature of test [11]: Cytotoxicity against human HT-29 cells assessed as reduction in cell viability measured after 48 hrs by resazurin dye-based fluorometric analysis. The class given is functional. As to conditions: Homo sapiens, HT-29, 48 h. In general terms: Alamar Blue is a resazurin reagent that responds to reducing activity.
Test [12] concerns HeLa. The experiment in a line: Effect on cell cycle progression in human HeLa cells assessed as […] cells at 200 nM. The class given is functional, cell-based.
The test system of test [13] is MES-SA. Description: Ratio of EC50 for taxol-resistant human MES-SA/DX5 cells expressing MDR1 mRNA and P-gp to EC50 for taxol-sensitive human MES-SA cells. The class given is functional.
Test [14] in a line: Antiproliferative activity against human taxol-sensitive MCF7 cells. The class given is functional, cell-based.
The nature of test [15]: Antiproliferative activity against taxol-resistant human MES-SA/Dx5 cells expressing MDR1 mRNA and P-gp. The class given is functional, cell-based.
A short description of test [16]: Antitumor activity against mouse B16F10 cells allografted in nude mouse assessed as mean growth inhibition at 10 mg/kg, iv qd for 5 days relative to control. The class given is functional, B16-F10. The arrangement: scale not given: the % may be the effect or the level left.
A short description of test [17]: Antiproliferative activity against taxol-sensitive human MES-SA cells pretreated with p-gp inhibitor cyclosporinA followed by compound addition. The class given is functional, cell-based.
Test [18] concerns MES-SA. The experiment in a line: Ratio of IC50 for taxol-sensitive human […] to IC50 for taxol-resistant human MES-SA/DX5 cells expressing MDR1 mRNA and P-gp. The class given is functional.
Test [19] relates to MCF7. Description: Ratio of IC50 for human taxol-sensitive MCF7 cells to IC50 for human taxol-resistant MCF7/ADR cells. The class given is functional.

Calls of active or inactive are those of the source. The calls are words filed in the database; no cut-off is given here.

As a reminder, the IC50 is the concentration needed to halve the response being measured. Usually EC50 stands for the concentration giving half of the maximal effect.

`CC(=O)O[C@@]12CO[C@@H]1C[C@H](O)[C@@]1(C)C(=O)[C@H](O)C3=C(C)[C@@H](OC(=O)[C@H](O)[C@@H](NC(=O)OC(C)(C)C)c4ccccc4)C[C@@](O)([C@@H](OC(=O)c4ccccc4)[C@H]21)C3(C)C` [DOCETAXEL ANHYDROUS]: the inhibition in vivo at 7.5 mg/kg in test [1] was 26%; in test [4], 12 to 58%. For the same compound, the inhibition in vivo at […] in [2] is 44.8%; in test [3] it was 26.1%. In addition, in the test on MCF7 [5], the TGI entry is “Active”.

`CC(=O)O[C@H]1C(=O)[C@@]2(C)[C@H]([C@H](OC(=O)c3ccccc3)[C@]3(O)C[C@H](OC(=O)[C@H](O)[C@@H](NC(=O)c4ccccc4)c4ccccc4)C(C)=C1C3(C)C)[C@]1(OC(C)=O)CO[C@@H]1C[C@@H]2O` [PACLITAXEL]: the result in the test on HeLa [6] and in the test on HeLa [12] was Active. Also, the entries for the “Ratio IC50” value in the test on MES-SA [7], in the test with MES-SA [18] and in the test with MCF7 [19] were 0.4 - 0.6, >8 - 3000 and greater than 38, respectively. Further, the IC50 is 2 to 40 nM in [8], 2.6 nM in [14] and 100 to 24000 nM in test [15]. The EC50 in test [9] is 4.8 to 13 nM; in test [11] it was 16.2 nM; in test [17], 2.8 to 18 nM. In [10], the inhibition in vivo at 7.5 mg/kg turned out to be 53%. Further, in the test with MES-SA [13], the “Ratio EC50” value turned out to be 417. Also, the Activity in test [16] stood at 35%.

Source of the values: ChEMBL document CHEMBL3881525, “Analogs of dehydrophenylahistins and their therapeutic use” (2007).
